Results reported in US6252079A, “Intermediates in the synthesis of camptothecin and related compounds and synthesis thereof” (University of Pittsburgh, priority 1997, dated 2001).
Read-outs that look alike come from different tables or passages of the source.

Legend:
[1] = test system: colon cancer xenografts; details: dose levels that were well tolerated; cited from earlier work
[2] = biological target: T1, Topoisomerase I (Homo sapiens, UniProt P11387); test: Inhibition of Topoisomerase I-mediated relaxation of supercoiled DNA; type: biochemical; details: 22d compared with CPT
T1 construct: supercoiled DNA relaxation and DNA cleavage assays
T1 sequence (P11387 2-765): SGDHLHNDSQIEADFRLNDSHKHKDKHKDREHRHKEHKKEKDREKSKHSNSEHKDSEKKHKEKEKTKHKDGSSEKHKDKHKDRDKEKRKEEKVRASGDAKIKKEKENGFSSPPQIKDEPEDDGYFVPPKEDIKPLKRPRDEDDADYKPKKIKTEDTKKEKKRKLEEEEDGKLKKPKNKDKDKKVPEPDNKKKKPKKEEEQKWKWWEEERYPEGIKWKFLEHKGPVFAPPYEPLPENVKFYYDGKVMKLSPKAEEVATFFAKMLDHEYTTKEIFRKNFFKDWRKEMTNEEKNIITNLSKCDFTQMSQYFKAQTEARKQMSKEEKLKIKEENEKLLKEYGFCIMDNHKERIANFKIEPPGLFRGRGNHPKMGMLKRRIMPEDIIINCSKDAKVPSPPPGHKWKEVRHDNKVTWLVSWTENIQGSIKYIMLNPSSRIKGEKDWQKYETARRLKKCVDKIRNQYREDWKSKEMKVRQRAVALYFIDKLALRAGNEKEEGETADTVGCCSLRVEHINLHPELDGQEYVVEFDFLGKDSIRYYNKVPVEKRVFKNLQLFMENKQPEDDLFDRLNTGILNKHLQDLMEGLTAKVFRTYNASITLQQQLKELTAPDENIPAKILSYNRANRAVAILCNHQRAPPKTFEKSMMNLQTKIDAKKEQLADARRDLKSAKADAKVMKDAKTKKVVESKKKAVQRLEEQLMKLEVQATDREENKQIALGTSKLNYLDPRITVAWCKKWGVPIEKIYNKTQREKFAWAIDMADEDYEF

[3] = biological target: T1, Topoisomerase I; test: Induction of Topoisomerase I-mediated DNA cleavage; type: biochemical; details: 22d compared with CPT
[4] = test system: 833 K human teratocarcinoma cells; test: Cytotoxicity, 833 K cells; type: cell-based; details: read-out: IC50 (833 K human teratocarcinoma cells)
Protocol: Cytotoxicity and Topoisomerase I-mediated effect studies of compounds 22d and (20S)-camptothecin were performed at the Laboratory for Bioorganic Chemistry, Memorial Sloan-Kettering Institute Cancer Center, New York with the following results: […]

[5] = test system: thirteen human xenograft lines, including colon, lung, breast, stomach, ovary, and malignant melanoma; details: 20% interlipid formulation, intramuscularly and orally, non-toxic doses; cited from earlier work
[6] = test system: HL-60 human promyelocytic leukemic cells; test: Cytotoxicity, HL-60 cells; type: cell-based
Protocol: Cytotoxicity and Topoisomerase I-mediated effect studies of compounds 22d and (20S)-camptothecin were performed at the Laboratory for Bioorganic Chemistry, Memorial Sloan-Kettering Institute Cancer Center, New York with the following results:
1. IC50 (HL-60 human promyelocytic leukemic cells, μmol): 0.004 (22d); 0.004 (CPT).

| Structure (SMILES) | efficacy in mice carrying colon cancer xenografts [1] | potency in the inhibition of Topoisomerase I-mediated relaxation of supercoiled DNA [2] | potency in the induction of Topoisomerase I-mediated DNA cleavage [3] | IC50 ([4]; 833K) [nM] | effect on growth of human xenograft lines [5] | IC50 ([6]; HL-60, read-out: IC50 (HL-60 human promyelocytic leukemic cells)) [nM] | IC50 ([4]; 833 K cells, cytotoxicity) [nM] | IC50 ([6]; HL-60 cells, cytotoxicity, read-out: IC50 (HL-60 human promyelocytic leukemic cells)) [nM] |
| --- | --- | --- | --- | --- | --- | --- | --- | --- |
| CCC1(O)C(=O)OCc2c1cc1n(c2=O)Cc2cc3c(N)cccc3nc2-1 (racemic) [Racemic 9-aminocamptothecin, 9-aminocamptothecin] | very effective |  |  |  |  |  |  |  |
| CC[C@@]1(O)C(=O)OCc2c1cc1n(c2=O)Cc2cc3ccccc3nc2-1 [CPT, (20S)-camptothecin] |  | Same potency | Same potency | 5.5 | suppressed growth and induced regression of cancer in thirteen human xenograft lines | 4 |  |  |
| CC[C@@]1(O)C(=O)OCc2c1cc1n(c2=O)Cc2c-1nc1ccccc1c2[Si](C)(C)C [Compound 22d, (20S)-7-Trimethylsilylcamptothecin] |  | Same potency | Same potency |  |  |  | 4.4 | 4 |
